Experimental findings from patent US7309708B2, “Hepatitis C virus inhibitors” (priority 2003, dated 2007) are described below.

The target in test [1] is T1, HCV NS3/4A protease complex (BMS strain) (UniProt P27958).
T1 construct: for H77 and J4L6S; fused on or other part: Probably a three-lysine solubilising tail at the C-terminus of NS4A and a His tag from pET21b (Ni-NTA purification); These are printed for the H77 and J4L6S constructs and only inferred for BMS
Put plainly: Recombinant HCV NS3/4A protease complex FRET peptide assay (BMS strain). The format is biochemical, Hepatitis C virus (genotype 1a. Particulars: read-out: IC50 (uuM); NS3/4A BMS strain; activity range class. The text has this: Serum from an HCV-infected patient was obtained from Dr. T. Wright, San Francisco Hospital. An engineered full-length cDNA (compliment deoxyribonucleic acid) template of the HCV genome (BMS strain) was constructed from DNA fragments obtained by reverse transcription-PCR (RT-PCR) of serum RNA (ribonucleic acid) and using primers selected on the basis of homology between other genotype 1a strains.
The H77 and J4L6S strains were used for production of recombinant NS3/4A protease complexes. […] Briefly, a three-lysine solubilizing tail was added at the 3′-end of the NS4A coding region. […] Briefly, the NS3/4A protease complex expression was induced with 0.5 millimolar (mM) Isopropyl β-D-1-thiogalactopyranoside (IPTG) for 22 hours (h) at 20° C. […] The cells were resuspended in lysis buffer (10 mL/g) consisting of 25 mM N-(2-Hydroxyethyl)Piperazine-N′-(2-Ethane Sulfonic acid) (HEPES), pH 7.5, 20% glycerol, 500 mM Sodium Chloride (NaCl), 0.5% Triton X-100, 1 microgram/milliliter (“μg/mL”) lysozyme, 5 mM Magnesium Chloride (MgCl2), 1 gg/ml DnaseI, 5 mM β-Mercaptoethanol (βME), Protease inhibitor—Ethylenediamine Tetraacetic acid (EDTA) free (Roche), homogenized and incubated for 20 minutes (min) at 4° C. The homogenate was sonicated and clarified by ultra-centrifugation at 235000 g for 1 h at 4° C. Imidazole was added to the supernatant to a final concentration of 15 mM and the pH adjusted to 8.0. The crude protein extract was loaded on a Nickel-Nitrilotriacetic acid (Ni-NTA) column pre-equilibrated with buffer B (25 mM HEPES, pH 8.0, 20% glycerol, 500 mM NaCl, 0.5% Triton X-100, 15 mM imidazole, 5 mM βME). The sample was loaded at a flow rate of 1 mL/min. The column was washed with 15 column volumes of buffer C (same as buffer B except with 0.2% Triton X-100). The protein was eluted with 5 column volumes of buffer D (same as buffer C except with 200 mM Imidazole).
NS3/4A protease complex-containing fractions were pooled and loaded on a desalting column Superdex-S200 pre-equilibrated with buffer D (25 mM HEPES, pH 7.5, 20% glycerol, 300 mM NaCl, 0.2% Triton X-100, 10 mM βME). Sample was loaded at a flow rate of 1 mL/min. NS3/4A protease complex-containing fractions were pooled and concentrated to approximately 0.5 mg/ml.
The enzyme was stored at −80° C., thawed on ice and diluted prior to use in assay buffer. […] The sequence of this peptide is loosely based on the NS4A/NS4B natural cleavage site for the HCV NS3 protease except there is an ester linkage rather than an amide bond at the cleavage site. The peptide substrate was incubated with one of the three recombinant NS3/4A protease complexes, in the absence or presence of a compound of the present invention, and the formation of fluorescent reaction product was followed in real time using a Cytofluor Series 4000.
Assay buffer: 50 mM HEPES, pH 7.5; 0.15 M NaCl; 0.1% Triton; 15% Glycerol; 10 mM βME. Substrate: 2 μM final concentration (from a 2 mM stock solution in DMSO stored at −20° C.). HCV NS3/4A protease type 1a (1b), 2-3 nM final concentration (from a 5 μM stock solution in 25 mM HEPES, pH 7.5, 20% glycerol, 300 mM NaCl, 0.2% Triton-X100, 10 mM βME).
The assay was performed in a 96-well polystyrene black plate from Falcon. Each well contained 25 μl NS3/4A protease complex in assay buffer, 50 μl of a compound of the present invention in 10% DMSO/assay buffer and 25 μl substrate in assay buffer. A control (no compound) was also prepared on the same assay plate.

For test [2], the system named is HCV replicon (strain 1b) in Huh7 cells. Put plainly: microbe, parasite or virus in culture. To be noted: Hepatitis C virus, Huh-7, 96 h; Huh7 cells expressing HCV replicon, 4 days; activity range class. The format is cell-based. An excerpt:
This system enabled us to evaluate the effects of our HCV Protease compounds on HCV RNA replication. Briefly, using the HCV strain 1b sequence described in the Lohmann paper (Assession number: AJ238799), an HCV cDNA was generated encoding the 5′ internal ribosome entry site (IRES), the neomycin resistance gene, the EMCV (encephalomyocarditis virus)-IRES and the HCV nonstructural proteins, NS3-NS5B, and 3′ non-translated region (NTR). In vitro transcripts of the cDNA were transfected into the human hepatoma cell line, Huh7. […] Resulting cell lines were characterized for positive and negative strand RNA production and protein production over time.
Huh7 cells, constitutively expressing the HCV replicon, were grown in Dulbecco's Modified Eagle Media (DMEM) containing 10% Fetal calf serum (FCS) and 1 mg/ml G418 (Gibco-BRL). Cells were seeded the night before (1.5×10^4 cells/well) in 96-well tissue-culture sterile plates. Compound and no compound controls were prepared in DMEM containing 4% FCS, 1:100 Penicillin/Streptomysin, 1:100 L-glutamine and 5% DMSO in the dilution plate (0.5% DMSO final concentration in the assay). Compound/DMSO mixes were added to the cells and incubated for 4 days at 37° C. After 4 days, plates were rinsed thoroughly with Phosphate-Buffered Saline (PBS) (3 times 150 μl). The cells were lysed with 25 μl of a lysis assay reagent containing the FRET peptide (RET S1, as described for the in vitro enzyme assay). The lysis assay reagent was made from 5× cell Luciferase cell culture lysis reagent (Promega #E153A) diluted to 1× with distilled water, NaCl added to 150 mM final, the FRET peptide diluted to 10 μM final from a 2 mM stock in 100% DMSO. The plate was then placed into the Cytofluor 4000 instrument which had been set to 340 nm excitation/490 nm emission, automatic mode for 21 cycles and the plate read in a kinetic mode. EC50 determinations were carried out as described for the IC50 determinations.
The replicon construct described for our FRET assay was modified by replacing the resistance gene neomycin with the Blasticidin-resistance gene fused to the N-terminus of the humanized form of Renilla luciferase (restriction sites Asc1/Pme1 used for the subcloning). […] The luciferase reporter assay was set up by seeding huh7 cells the night before at a density of 2×10^6 cells per T75 flask. Cells were washed the next day with 7.5 ml Opti-MEM. Following the Invitrogen protocol, 40 μl DMRIE-C was vortexed with 5 ml Opti-MEM before adding 5 μg HCV reporter replicon RNA. The mix was added to the washed huh7 cells and left for 4 h at 37° C. In the mean time, serial compound dilutions and no compound controls were prepared in DMEM containing 10% FCS and 5% DMSO in the dilution plate (0.5% DMSO final concentration in the assay). Compound/DMSO mixes were added to each well of a 24-well plate. After 4 h, the transfection mix was aspirated, and cells washed with 5 ml of Opti-MEM before trypsinization. Trypsinized cells were resuspended in 10% DMEM and seeded at 2×10^4 cells/well in the 24-well plates containing compound or no compound controls. Plates were incubated for 4 days. After 4 days, media was removed and cells washed with PBS. 100 μl 1× Renilla Luciferase Lysis Buffer (Promega) was immediately added to each well and the plates either frozen at −80° C. for later analysis, or assayed after 15 min of lysis. Lysate (40 μl) from each well was transferred to a 96-well black plate (clear bottom) followed by 200 μl 1× Renilla Luciferase assay substrate. Plates were read immediately on a Packard TopCount NXT using a luminescence program.
The values were graphed and analyzed using XLFit to obtain the EC50 value.

T1 sequence (P27958 1027-1657, one chain of several): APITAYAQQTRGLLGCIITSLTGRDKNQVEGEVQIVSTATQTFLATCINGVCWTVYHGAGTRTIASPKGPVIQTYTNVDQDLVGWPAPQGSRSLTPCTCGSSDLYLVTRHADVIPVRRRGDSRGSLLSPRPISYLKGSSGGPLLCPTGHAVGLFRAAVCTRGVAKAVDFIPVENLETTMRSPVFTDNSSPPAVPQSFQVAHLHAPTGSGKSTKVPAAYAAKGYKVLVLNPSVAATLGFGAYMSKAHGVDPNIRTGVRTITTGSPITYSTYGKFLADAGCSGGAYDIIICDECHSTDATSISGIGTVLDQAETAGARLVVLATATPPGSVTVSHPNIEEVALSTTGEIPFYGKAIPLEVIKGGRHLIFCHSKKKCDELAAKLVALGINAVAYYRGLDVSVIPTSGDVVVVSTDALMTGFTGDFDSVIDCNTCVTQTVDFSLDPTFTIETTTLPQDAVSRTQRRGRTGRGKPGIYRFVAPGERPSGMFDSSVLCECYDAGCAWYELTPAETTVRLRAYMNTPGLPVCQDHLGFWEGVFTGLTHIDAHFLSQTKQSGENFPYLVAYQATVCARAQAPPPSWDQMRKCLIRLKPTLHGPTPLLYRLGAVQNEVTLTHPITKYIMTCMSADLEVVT

In the case of `C=C[C@@H]1C[C@]1(NC(=O)[C@@H]1C[C@@H](Oc2nccc3cc(OC)ccc23)CN1C(=O)[C@@H](NC(=O)OC(C)(C)C)C(C)(C)C)C(=O)NS(=O)(=O)c1cc(Cl)c(Cl)s1` [Compound 1001], in test [1], the half-inhibitory concentration (IC50) is below 100 nM. The molecule also yielded an EC50 in test [2] of 1000 to 10000 nM.
In the case of `C=C[C@@H]1C[C@]1(NC(=O)[C@@H]1C[C@@H](Oc2nccc3cc(OC)ccc23)CN1C(=O)[C@@H](NC(=O)OC(C)(C)C)C(C)(C)C)C(=O)NS(=O)(=O)c1sc(C)nc1C` [Compound 1003], in test [1], the IC50 was 100 to 1000 nM. Moreover, the EC50 in test [2] lay within 100 to 1000 nM.
For `C=C[C@@H]1C[C@]1(NC(=O)[C@@H]1C[C@@H](Oc2nccc3cc(OC)ccc23)CN1C(=O)[C@@H](NC(=O)OC(C)(C)C)C(C)(C)C)C(=O)NS(=O)(=O)c1c(C)nn(C)c1Cl` [Compound 1004], the IC50 in test [1] was in the range of 100 to 1000 nM. For the same molecule, in test [2], the half-maximal effective concentration (EC50) fell in the range of 100 to 1000 nM.
For the molecule `C=C[C@@H]1C[C@]1(NC(=O)[C@@H]1C[C@@H](Oc2nccc3cc(OC)ccc23)CN1C(=O)[C@@H](NC(=O)OC(C)(C)C)C(C)(C)C)C(=O)NS(=O)(=O)c1cn(C)cn1` [Compound 1005], the half-inhibitory concentration (IC50) in test [1] was in the range of 1000 to 10000 nM. Besides, the EC50 in test [2] was 1000 to 10000 nM.
As for `C=C[C@@H]1C[C@]1(NC(=O)[C@@H]1C[C@@H](Oc2nccc3cc(OC)ccc23)CN1C(=O)[C@@H](NC(=O)OC(C)(C)C)C(C)(C)C)C(=O)NS(=O)(=O)c1cccs1` [Compound 1006], the IC50 in test [1] is below 100 nM. This molecule registered an EC50 in test [2] of 100 to 1000 nM.
The matching figures for `C=C[C@@H]1C[C@]1(NC(=O)[C@@H]1C[C@@H](Oc2nccc3cc(OC)ccc23)CN1C(=O)[C@@H](NC(=O)OC(C)(C)C)C(C)(C)C)C(=O)NS(=O)(=O)c1ccccc1` [Compound 1007]: below 100 nM and 100 to 1000 nM.
`C=C[C@@H]1C[C@]1(NC(=O)[C@@H]1C[C@@H](Oc2nccc3cc(OC)ccc23)CN1C(=O)[C@@H](NC(=O)OC(C)(C)C)C(C)(C)C)C(=O)NS(=O)(=O)c1nnc(NC(C)=O)s1` [Compound 1011]: in test [1], the IC50 was below 100 nM. In addition, the concentration giving a half-maximal response (EC50) in test [2] lay within 1000 to 10000 nM.
Regarding `C=C[C@@H]1C[C@]1(NC(=O)[C@@H]1C[C@@H](Oc2nccc3cc(OC)ccc23)CN1C(=O)[C@@H](NC(=O)OC(C)(C)C)C(C)(C)C)C(=O)NS(=O)(=O)c1c(C)noc1C` [Compound 1012], the concentration for half-maximal inhibition (IC50) in test [1] was in the range of 1000 to 10000 nM.

Broadly, the IC50 is the concentration needed to halve the response being measured. The EC50 is the concentration at which the effect is half-maximal. A lower EC50 goes with higher potency in that assay.
